Laboratory results published in article PMC12530846, “Development of Novel Anticancer Pyrazolopyrimidinones Targeting Glioblastoma” (Chemmedchem, 2025).

Assays:
Assay type in all cases: cell-based, human
U‐251 MG cells [1] = assay: Propidium iodide (PI) flow cytometry, cell membrane permeabilization; settings: 5 days; for PI: significance of cell death, Neg Ctrl v HNT: highest non-toxic concentration
Protocol: Propidium iodide (PI) is a DNA staining, cell membrane impermeable dye which was used to assess cell death via loss of membrane integrity and is used to indicate necrotic or late apoptotic cells. Stock solutions of PI dye (Merck, Ireland) were prepared at 10 μg/mL in PBS and stored at −20 °C. U‐251 MG cells were seeded in 96‐well plates at a seeding density of 2 x 10^3 cells per well (100 μL), as previously stated. […] Subsequently, the compound was collected in 15 ml falcon tubes. Cells were washed with PBS (100 μL), and the PBS was collected in corresponding tubes to ensure all cells are collected. The cells were collected using 0.25% trypsin‐EDTA (50 μL) with a 6‐min incubation and media neutralization (100 μL). Each tube was centrifuged at 1200rpm for 5 min to obtain a pellet. The supernatant was removed, and the pellet was resuspended in PBS and transferred to an Eppendorf tube. Ten microliters of PI stain (2.5 μg/ml) was added to the Eppendorf tubes, and the tubes were incubated for a period of 15 min. Cells were also treated using controls whereby the positive control used was DMEM and 20% DMSO and the negative control used was fresh media. The cells were then analyzed using flow cytometry (Beckmann Coulter, CytExpert version 2.4.0.28). Fluorescence was measured using the FL2 channel. PI was detected in the red channel which is R‐phycoerythrin (PE‐Cy5). PE was used in combination with fluorescein isothiocyanate (FITC) and is excited at a wavelength of 488 nm.
(§1) Each of the experiments was performed at least three independent times, with a minimum of six technical replicates per experiment. Statistical analysis was carried out using GraphPad Prism version 8.0.0 (GraphPad Softwares, Inc.). Curve fitting and the IC50 values were obtained through the dose–response curves using nonlinear regression. To determine if the dose–response curves were statistically distinct and not overlapping, extra sum‐of‐squares F‐test was used, and a p‐value was obtained. The effect of compound treatment on both cell lines was statistically compared via two‐way ANOVA with Tukey's post‐test. The CytExpert (Beckman Coulter) software was used for flow cytometry analysis. Graphs represent the % dead cells whereby the total number of dead cells was divided by the total cell population. The statistical significance of the flow cytometry results was determined via one‐way analysis of variance (ANOVA) with Dunnett's T3 multiple comparison post‐test. Data is presented as the mean ± standard error of mean (SEM). Summary of results from statistical analysis reports p‐values as follows: ≥0.05 (ns), 0.01–0.05 (*), 0.001–0.01 (**), […], and <0.0001(****).

HEK293 cells = assay: MTT cell viability assay, noncancerous HEK293 cells, 5 days treatment; settings: for cytotoxicity / biological response in HEK293, in words: 5 days, up to 100 µM, threshold 50 µM; for IC50: 5 days treatment, 100–0 µM
Protocol: (§2) Dose–response curves for each of the pyrazolo[1,5‐α]pyrimidinones were performed to determine the cytotoxic effect of the compounds on a cancerous, U‐251 MG cell line and a noncancerous, HEK293 cell line. The synthesized pyrazolopyrimidinones were dissolved in DMSO (Merck) to obtain a stock solution which was stored at −20 °C. […] U‐251 MG and HEK293 cells were seeded at a density of 2 x 10^3 cells per well (100 μL) in a 96‐well plate (Sarstedt) and incubated for 24 h prior to each treatment to allow for cell adhesion. The stock solution was diluted in media to working concentrations of 100, 75, 50, 25, 10, 5, and 0.1 μM. Media on the seeded cells was then replaced with the working concentrations of the compound or the controls in a 96‐well plate (100 μL). The treated plate was incubated at 37 °C in the humidified incubator for 5 days. Cell viability was assessed after 5 days using the MTT assay. Dose–response curves were then plotted relative to the positive control whereby cells were treated 20% DMSO and a negative control whereby cells were maintained in fresh DMEM.
(§3) To determine the extent of the cytotoxic effect of the pyrazolopyrimidinone on each cell line, the cell viability at each working concentration was determined via the MTT assay (Merck). The working solution of MTT used was 5 mg MTT per 1 ml of PBS diluted in 9 ml of media. After 5 days of incubation, the treatment was removed from each of the wells and replaced with 100 μL of fresh MTT solution. The plate was then incubated for 3 h at 37 °C in a humidified incubator to allow the reduction of the yellow tetrazolium salt to purple formazan crystals. After the incubation, the MTT solution was removed from the wells and replaced with 100 μL of DMSO for 15 min to dissolve the formazan crystals. The absorbance was read at 570 nm using a spectrophotometric microplate reader (Thermo Fisher Scientific).
as §1

U‐251 MG cells [2] = assay: JC‐1 flow cytometry, mitochondrial membrane depolarization / apoptosis; settings: 5 days; for apoptosis observed (JC-1): example analysis, negative control 8.64 %; for JC-1: significance of cell death, Neg Ctrl v HNT / JC-1: significance of cell death, Neg Ctrl v 50 µM: U‐251 MG; for JC-1: significance of cell death, Neg Ctrl v 50 µM: highest toxic concentration 50 µM
Protocol: JC‐1 dye forms aggregates in healthy mitochondria which changes the fluorescent property of the dye. […] Stock solutions of JC‐1 dye (Merck) were prepared at 1 mg/mL in DMSO and stored at −20 °C. U‐251 MG cells were seeded in 6‐well plates (Sarstedt) at a seeding density of 2 x 10^4 cells per well (1000μL) after which cells were treated with drug concentrations (highest toxic, IC50, nontoxic). After 5 days incubation, the compound and wash step with PBS was collected in falcon tubes. The cells were then harvested by trypsinization (500 μL), incubated for a period of 6 min, neutralized with media (1000 μL), and pelleted at 1200rpm for 5 min. A JC‐1 working solution of 2 μg/mL was made up in DMEM and was light protected. The cell pellet was resuspended and stained with 2 μg/mL JC‐1 dye and incubated and protected from the light for a period of 10 min. Cells were then centrifuged at 1200rpm for 5 min. The supernatant was removed, and cells were washed with 1 mL of sterile PBS. This was repeated twice. […] Cells were also treated using controls whereby the positive control used was DMEM and 20% DMSO and the negative control used was fresh media. The cells were then analyzed using flow cytometry (Beckmann Coulter, CytExpert version 2.4.0.28). Fluorescence was measured using FL1 (FITC) (530 nm) and FL2 (PE) (595 nm) channels with emission.
as §1

[3] = tested on: U‐251 MG and HEK293 cells; assay: Statistical comparison of dose–response in U‐251 MG versus HEK293 (selectivity, HIT criteria); settings: for Selectivity for cancer cells with IC50 < 50 [µM]‐Yes/No: HEK293 IC50 higher than U‐251 MG IC50, U‐251 MG IC50 below 50 µM; for All criteria met -Yes/No: HIT criteria and statistical testing, Table S1
U‐251 MG cells [4] = assay: MTT cell viability assay, U‐251 MG glioblastoma cells, 5 days treatment; settings: for IC50: 5 days treatment, 100–0 µM; for cytotoxicity / biological effect on U‐251 MG, in words: 5 days, up to 100 µM
Protocol: as §2, §3, §1

[5] = highest non-toxic concentration

Compound | cytotoxicity / biological response in HEK293, in words (HEK293 cells) | Selectivity for cancer cells with IC50 < 50 [µM]‐Yes/No [3] | All criteria met -Yes/No [3] | IC50 (HEK293 cells; Homo sapiens, HEK293, 120 h) | IC50 (U‐251 MG cells [4]; Homo sapiens, U-251, 120 h) | also measured
O=c1cc(-c2cc(C(F)(F)F)cc(C(F)(F)F)c2)[nH]c2cc(-c3ccccc3)nn12 [Compound 5] | did not elicit any biological response | Yes | Yes | – | – | cell membrane permeabilization‐dependent cell death (PI), in words (U‐251 MG cells [1]): did not induce cell death by cell wall permeabilization; apoptosis observed (JC-1) (U‐251 MG cells [2]; IC50 concentration): 15.55%; apoptosis observed (JC-1) (U‐251 MG cells [2]; [5]): 14.34%; apoptosis observed (JC-1) (U‐251 MG cells [2]; highest toxic concentration): 52.97%
O=c1cc(-c2cc(C(F)(F)F)cc(C(F)(F)F)c2)[nH]c2cc(-c3ccc(C(F)(F)F)cc3)nn12 [Compound 9] | did not elicit any biological response | Yes | Yes | > 50 µM | 26.8 µM | cell membrane permeabilization‐dependent cell death (PI), in words (U‐251 MG cells [1]): significant cell membrane permeabilization‐dependent cell death; PI: significance of cell death, Neg Ctrl v HNT (U‐251 MG cells [1]): ns (≥0.05 (ns)); PI: significance of cell death, Neg Ctrl v 50 µM (U‐251 MG cells [1]; highest toxic concentration 50 µM): **** (<0.0001(****)); IC50 (HEK293 cells): 54.4 µM; JC-1: significance of cell death, Neg Ctrl v HNT (U‐251 MG cells [2]; [5]): ns (≥0.05 (ns)); JC-1: significance of cell death, Neg Ctrl v 50 µM (U‐251 MG cells [2]): ** (0.001 to 0.01 (**)); IC50 (U‐251 MG cells [4]): 27.5 µM
Cc1cc2[nH]c(C)cc(=O)n2n1 [Compound 16] | – | – | No | – | – | –
CC(C)(C)c1cc2[nH]c(-c3ccccc3)cc(=O)n2n1 [Compound 17] | – | – | No | – | 76.6 µM | –
Cc1cc(=O)n2nc(C(C)C)cc2[nH]1 [Compound 1] | – | No | – | – | – | –
CC(C)c1cc2[nH]c(C(C)C)cc(=O)n2n1 [Compound 18] | – | No | No | 118 µM | 170 µM | –
COc1ccc(-c2cc3[nH]c(-c4cc(C(F)(F)F)cc(C(F)(F)F)c4)cc(=O)n3n2)cc1 [Compound 11] | – | No | No | < 30 µM | 23.5 µM | IC50 (HEK293 cells): 29.5 µM
O=c1cc(-c2cc(C(F)(F)F)cc(C(F)(F)F)c2)[nH]c2cc(-c3ccco3)nn12 [Compound 13] | no cytotoxicity | – | No | – | – | cytotoxicity / biological effect on U‐251 MG, in words (U‐251 MG cells [4]): no cytotoxicity
Cc1cc(C)cc(-c2cc(=O)n3nc(C(C)C)cc3[nH]2)c1 [Compound 3] | – | No | – | 6.52 µM | – | –
Cc1cc(=O)n2nc(-c3ccccc3)cc2[nH]1 [Compound 14] | did not elicit a biological effect | – | No | – | 81.5 µM | cytotoxicity / biological effect on U‐251 MG, in words (U‐251 MG cells [4]): did not elicit a biological effect
O=c1cc(-c2cc(C(F)(F)F)cc(C(F)(F)F)c2)[nH]c2cc(-c3cccc(Cl)c3)nn12 [Compound 12] | – | – | No | < 30 µM | 21.7 µM | IC50 (HEK293 cells): 29.5 µM
O=c1cc(-c2cc(C(F)(F)F)cc(C(F)(F)F)c2)[nH]c2cc(-c3ccc(Cl)cc3)nn12 [Compound 8] | did not elicit any biological response | Yes | – | > 50 µM | < 30 µM | IC50 (HEK293 cells): 52.4 µM; IC50 (U‐251 MG cells [4]): 17.3 µM
CCc1cc(=O)n2nc(C(C)C)cc2[nH]1 [Compound 19] | – | – | No | – | 154 µM | –
CC(C)c1cc2[nH]c(-c3cc(C(F)(F)F)cc(C(F)(F)F)c3)cc(=O)n2n1 [Compound 4] | – | No | – | 7.38 µM | < 20 µM | IC50 (U‐251 MG cells [4]): 14 µM
O=c1cc(-c2cc(C(F)(F)F)cc(C(F)(F)F)c2)[nH]c2cc(-c3ccc(F)cc3)nn12 [Compound 6] | – | No | – | 68.2 µM | 52.2 µM | –
O=c1cc(-c2cc(C(F)(F)F)cc(C(F)(F)F)c2)[nH]c2cc(-c3cccc(C(F)(F)F)c3)nn12 [Compound 20] | – | – | No | – | 31 µM | –
O=c1cc(-c2cc(C(F)(F)F)cc(C(F)(F)F)c2)[nH]c2cc(-c3ccc([N+](=O)[O-])cc3)nn12 [Compound 10] | did not elicit any biological response | Yes | Yes | > 50 µM | – | cell membrane permeabilization‐dependent cell death (PI), in words (U‐251 MG cells [1]): significant cell membrane permeabilization‐dependent cell death; PI: significance of cell death, Neg Ctrl v HNT (U‐251 MG cells [1]): ns (≥0.05 (ns)); IC50 (HEK293 cells): 73.8 µM; JC-1: significance of cell death, Neg Ctrl v HNT (U‐251 MG cells [2]; [5]): * (0.01 to 0.05 (*)); JC-1: significance of cell death, Neg Ctrl v 50 µM (U‐251 MG cells [2]): *** (0.001 to 0.01(***))
O=c1cc(-c2cc(C(F)(F)F)cc(C(F)(F)F)c2)[nH]c2cc(-c3cccc([N+](=O)[O-])c3)nn12 [Compound 23] | – | Yes | – | 60.3 µM | 29.6 µM | IC50 (U‐251 MG cells [4]): 23.2 µM
CC(C)c1cc2[nH]c(-c3ccccc3)cc(=O)n2n1 [Compound 2] | – | No | – | 9.8 µM | < 20 µM | IC50 (U‐251 MG cells [4]): 20.6 µM
